≈ marks a conversion by molar mass, not a printed value. Read-outs that look alike come from different tables or passages of the source.
Columns and labels:
[1] = solubility of (+), (−) and racemic forms of tenatoprazole in water; assay type: physicochemical; conditions: for solubility in water relative to the racemic form: versus racemic form
[2] = versus other proton pump inhibitors such as omeprazole or lansoprazole; cited from earlier work
clinical = conditions: human, plasma
[3] = chiral pharmacokinetic study, plasma analysis after chiral separation in genotyped subjects
Experimental: In parallel, a chiral pharmacokinetic study was conducted to assess the preponderance of the pharmacokinetic characteristics of the (−) isomer in the pharmacokinetics of racemic tenatoprazole.
These subjects have a very weak metabolic activity concerning CYP2C19, which is responsible for the metabolism of tenatoprazole. […] These subjects are qualified as slow metabolisers.

Compound: COc1ccc2[nH]c([S+]([O-])Cc3ncc(C)c(OC)c3C)nc2n1 (racemic) [(±)racemic form, (+)-5-methoxy-2-{[(4-methoxy-3,5-dimethyl-2-pyridyl)methyl]sulfinyl}imidazo-[4,5-b]pyridine]
- solubility [1]: 34.6 µg/mL (≈ 99.9 µM)
- plasma half-life relative to other proton pump inhibitors [2]: about seven
- half-life (clinical; 20 mg): ~420 min
- half-life (clinical; 80 mg): ~540 min

Compound: COc1ccc2[nH]c([S+]([O-])Cc3ncc(C)c(OC)c3C)nc2n1 (single isomer, unassigned; (+)) [(+) form]
- Solubility (water) [1]: 93.0 µg/mL (≈ 268 µM)
- solubility in water relative to the racemic form [1]: ~3 times
- plasma level of the isomer compared with the other isomer ([3]; slow metabolisers, CYP2C19*2/*2 genotype, plasma after chiral separation): highly significant increase

Compound: COc1ccc2[nH]c([S+]([O-])Cc3ncc(C)c(OC)c3C)nc2n1 (single isomer, unassigned; (-)) [(−) enantiomer]
- Solubility (water) ([1]; listed as (−) form): 74.4 µg/mL (≈ 215 µM)
- solubility in water relative to the racemic form [1]: over 2 times
- plasma concentration of the isomer compared with the other isomer ([3]; rapid metabolisers, CYP2C19*1/*1 genotype): higher concentration

From patent US8207190B2, “Enantiomer of tenatoprazole and the use thereof in therapy” (Mitsubishi Tanabe Pharma Corporation, priority 2003, dated 2012)
